Source: US9296758B2, “2-quinolinyl-acetic acid derivatives as HIV antiviral compounds” (GILEAD SCIENCES, INC., priority 2010, dated 2016)

System: HIV-IIIb
Test: Test A: Antiviral Assays in MT4 Cells
Type: cell-based
Details: MT-4 cells infected with HIV-IIIb (0.004 m.o.i.), 5 days of incubation, CellTiter-Glo chemiluminescence readout
How it was run: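 MT-4 cells pre-infected with HIV-IIIb (0.004 m.o.i.) or mock-infected, 2000 cells per well, were exposed to 10 three-fold serial compound dilutions in quadruplicate in RPMI 1640 with 10% FBS. After 5 days at 37° C, cell viability read by CellTiter-Glo chemiluminescence.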

[1] = Human immunodeficiency virus 1, IIIB, MT4, 120 h

Row | SMILES | EC50 [1] | EC50
1 | C#Cc1ccc2c(-c3ccc4c5c(ccnc35)CCO4)c([C@H](OC(C)(C)C)C(=O)O)c(C)cc2n1 (atropisomer, axis not shown) [Compound 45, (S)-2-tert-butoxy-2-((R)-5-(2,3-dihydropyrano[4,3,2-de]quinolin-7-yl)-2-ethynyl-7-methylquinolin-6-yl)acetic acid] | 29200 nM | 
2 | Cc1cc2nc(-c3ccncc3)ccc2c(-c2ccc(Cl)cc2)c1[C@H](OC(C)(C)C)C(=O)O [Compound 73, (S)-2-tert-butoxy-2-(5-(4-chlorophenyl)-7-methyl-2-(pyridin-4-yl)quinolin-6-yl)acetic acid] | 247 nM | 
3 | Cc1cc2nc(C(C)C)ccc2c(-c2ccc(Cl)cc2)c1[C@H](OC(C)(C)C)C(=O)O [Compound 90, (S)-2-tert-butoxy-2-(5-(4-chlorophenyl)-2-isopropyl-7-methylquinolin-6-yl)acetic acid] | 67 nM | 
4 | Cc1cccnc1-c1ccc2c(-c3ccc4c5c(ccnc35)CCO4)c([C@H](OC(C)(C)C)C(=O)O)c(C)cc2n1 [Compound 106, (S)-2-tert-Butoxy-2-((R)-5-(2,3-dihydropyrano[4,3,2-de]quinolin-7-yl)-7-methyl-2-(3-methylpyridin-2-yl)quinolin-6-yl)acetic acid] |  | 25 nM
